# In patent US6492399B1, “Pharmaceutical compositions and methods for use” (Targacept, Inc., priority 1998, dated 2002):
# Columns and labels:
# Type in all cases: biochemical
# [1] = tested on: dopamine release; experiment: Determination of dopamine release; conditions: amount released relative to (S)-(-)-nicotine
# Experimental: Determination of Dopamine Release
# Dopamine release was measured using the techniques described in U.S. Pat. No. 5,597,919 to Dull et al. Release is expressed as a percentage of release obtained with a concentration of (S)-(−)-nicotine resulting in maximal effects. Reported EC50 values are expressed in nM, and Emax values represent the amount released relative to (S)-(−)-nicotine on a percentage basis.
# [2] = tested on: Rat brain synaptosomes; experiment: Neurotransmitter release from brain synaptosomes; conditions: 10 μM ligand; percentage of release with 10 μM (S)-(-)-nicotine or 300 μM TMA
# Experimental: Neurotransmitter Release From Brain Synaptosomes
# Neurotransmitter release was measured using techniques similar to those previously published (Bencherif M, et al . . . JPET279: 1413-1421, 1996).
# Rat brain synaptosomes were prepared as follows: Female Sprague Dawley rats (100-200 g) were killed by decapitation after anesthesia with 70% CO2. Brains are dissected, and hippocampus, striatum, and thalamus isolated, and homogenized in 0.32 M sucrose containing 5 mM HEPES pH 7.4 using a glass/glass homogenizer. The tissue was then centrifuged for 1000×g for 10 minutes and the pellet discarded. The supernatant was centrifuged at 12000×g for 20 minutes. The resultant pellet was re-suspended in perfusion buffer (128 mM NaCl, 1.2 mM KH2PO4, 2.4 mM KCl, 3.2 mM CaCl2, 1.2 mM MgSO4, 25 mM HEPES, 1 mM Ascorbic acid, 0.01 mM pargyline HCl and 10 mM glucose pH 7.4) and centrifuged for 15 minutes at 25000×g. The final pellet was resuspended in perfusion buffer and placed in a water bath (37° C.) for 10 minutes. Radiolabeled neurotransmitter is added (30 μL ^3H DA, 20 μL ^3H NE, 10 μL ^3H glutamate) to achieve a final concentration of 100 nM, vortexed and placed in a water bath for additional 10 minutes. Tissue-loaded filters is placed onto 11-mm diameter Gelman A/E filters on an open-air support. After a 10-minute wash period, fractions are collected to establish the basal release and agonist applied in the perfusion stream. Further fractions were collected after agonist application to re-establish the baseline. The perfusate was collected directly into scintillation vials and released radioactivity was quantified using conventional liquid scintillation techniques. Release of neurotransmitter was determined in the presence of 10μM of various ligands and was expressed as a percentage of release obtained with a concentration of 10 μM (S)-(−)-nicotine or 300 μM TMA resulting in maximal effects.
# [3] = tested on: rubidium ion flux; experiment: Determination of rubidium ion release (rubidium ion flux assay); conditions: rubidium ion released relative to 300 uM tetramethylammonium ion
# Experimental: Determination of Rubidium Ion Release
# Rubidium release was measured using the techniques described in Bencherif et al., JPET, 279: 1413-1421 (1996). Reported EC50 values are expressed in nM, and Ema, values represent the amount of rubidium ion released relative to 300 uM tetramethylammonium ion, on a percentage basis.
SMILES,Emax for dopamine release [1],neurotransmitter release Emax [2],Emax in the rubidium ion flux assay [3]
"CNCC/C=C/c1cncc(C(=O)NCc2ccccc2)c1 [Sample No. 2, (3E)-N-methyl-N-[3-(5-(N-benzylcarboxamido)pyridin)yl]-3-buten-1-amine]",12%,,
CN[C@@H](C)C/C=C/c1cc(OC(C)C)c[n+]([O-])c1 [Sample No. 5],,19%,
"CNCC/C=C/c1cncc(OCC(C)C)c1 [Sample No. 6, (3E)-N-methyl-4-(3-(5-isobutoxypyridin)yl)-3-buten-1-amine hemigalactarate]",25%,,15%
"CNC(C)CC=Cc1ccc[n+]([O-])c1 (centres unmarked) [Sample No. 8, (4E)-N-methyl-5-(3-(1-oxopyridin)yl)-4-penten-2-amine]",,9%,
"CCSc1cncc(/C=C/CCNC)c1 [Sample No. 9, (3 E)-N-methyl-4-(3-(5-ethylthiopyridin)yl)-3-buten-1-amine hemigalactarate]",39%,,40%
"CNC(C)CC=Cc1cncc(C(F)(F)F)c1 (centres unmarked) [Sample No. 10, (4E)-N-methyl-5-(3-(5-trifluoromethylpyridin)yl)-4-penten-2-amine]",,50%,0%
"CC(N)CC=Cc1cncc(OC(C)C)c1 (centres unmarked) [Sample No. 12, (4E)-5-(3-(5-isopropoxypyridin)yl)-4-penten-2-amine hemigalactarate]",,32%,
"CNC(C)CC=Cc1cncc(O)c1 (centres unmarked) [Sample No. 13, (4E)-N-methyl-5-(3-(5-hydroxypyridin)yl)-4-penten-2-amine sesquioxalate]",,80%,
